Laboratory results reported in ChEMBL document CHEMBL1201862, “PubChem BioAssay data set” (2004).
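Exposure lasted 48 hours, with cells grown in 96-well plates and compounds tested at five concentrations. At the GI50, growth is halved.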 Calls of active or inactive are those of the source. Rule as the data show it: active = GI50 up to about 1.1 µM and inactive = higher.

Tests used:
Assay in all cases: inhibition of tumour cell growth, NCI panel, 48 h
[1] = test system: HOP-62
[2] = test system: EKVX
[3] = test system: RXF 393
[4] = test system: HCT-116
[5] = test system: M14
[6] = test system: TK-10
[7] = test system: HCC 2998
[8] = test system: NCI-H460
[9] = test system: MCF7
[10] = test system: OVCAR-4
[11] = test system: T47D
[12] = test system: K562
[13] = test system: CAKI-1
[14] = test system: SF-539
[15] = test system: SK-MEL-5
[16] = test system: COLO 205
[17] = test system: SN12C
[18] = test system: SW-620
[19] = test system: HT-29
[20] = test system: A498
[21] = test system: SK-MEL-28
[22] = test system: A549
[23] = test system: SK-MEL-2
[24] = test system: BT-549
[25] = test system: SF-295
[26] = test system: UACC-257
[27] = test system: UACC-62
[28] = test system: HCT-15
[29] = test system: UO-31
[30] = test system: CCRF-CEM
[31] = test system: SNB-19
[32] = test system: LOX IMVI
[33] = test system: MDA-N
[34] = test system: OVCAR-5
[35] = test system: HL-60
[36] = test system: DU-145
[37] = test system: SK-OV-3
[38] = test system: 786-0
[39] = test system: NCI/ADR-RES
[40] = test system: KM12
[41] = test system: MDA-MB-231
[42] = test system: PC-3
[43] = test system: IGROV-1
[44] = test system: HOP-92
[45] = test system: NCI-H23
[46] = test system: U-251
[47] = test system: MDA-MB-435
[48] = test system: SR
[49] = test system: ACHN
[50] = test system: OVCAR-8
[51] = test system: RPMI-8226
[52] = test system: MOLT-4
[53] = test system: OVCAR-3
[54] = test system: NCI-H226
[55] = test system: Hs-578T
[56] = test system: Malme-3M
[57] = test system: SF-268
[58] = test system: NCI-H522
[59] = test system: SNB-75

`O=c1oc2cc(O)ccc2cc1-c1nc2ccccc2s1` was tested, and the GI50 [1] was 20.9 µM (inactive), the GI50 [2] was 27.2 µM (inactive) and the GI50 [3] was 31.7 µM (inactive). The GI50 [4] was 21.8 µM (inactive), the GI50 [5] was 24.5 µM (inactive) and the GI50 [6] was 30.1 µM (inactive). The GI50 [7] was 27.5 µM (inactive), the GI50 [8] was 21.2 µM (inactive) and the GI50 [9] was 23.9 µM (inactive). For the same molecule, the GI50 [10] was 28.2 µM (inactive), the GI50 [11] was 31.3 µM (inactive) and the GI50 [12] was 7.41 µM (inactive). The GI50 [13] was 22.9 µM (inactive), the GI50 [14] was 24.7 µM (inactive) and the GI50 [15] was 11.1 µM (inactive). The GI50 [16] was 0.109 µM (active), the GI50 [17] was 21.8 µM (inactive) and the GI50 [18] was 12.2 µM (inactive). The GI50 [19] was 29 µM (inactive), the GI50 [20] was 19.6 µM (inactive) and the GI50 [21] was 0.0656 µM (active). For the same molecule, the GI50 [22] was 19.1 µM (inactive), the GI50 [23] was 21.8 µM (inactive) and the GI50 [24] was 16.9 µM (inactive). For the same molecule, the GI50 [25] was 54.1 µM (inactive), the GI50 [26] was 22.6 µM (inactive) and the GI50 [27] was 7.21 µM (inactive). The GI50 [28] was 20.1 µM, the GI50 [29] was 16.4 µM (inactive) and the GI50 [30] was 10.4 µM (inactive). The GI50 [31] was 30.8 µM (inactive), the GI50 [32] was 25.9 µM (inactive) and the GI50 [33] was 19.1 µM (inactive). The GI50 [34] was 30.8 µM (inactive), the GI50 [35] was 16.1 µM (inactive) and the GI50 [36] was 29.2 µM (inactive). The GI50 [37] was 38.8 µM (inactive), the GI50 [38] was 22.8 µM (inactive) and the GI50 [39] was 18.7 µM (inactive). The GI50 [40] was 42.3 µM (inactive), the GI50 [41] was 23.7 µM (inactive) and the GI50 [42] was 22.8 µM (inactive). The GI50 [43] was 35.4 µM (inactive), the GI50 [44] was 27.7 µM (inactive) and the GI50 [45] was 21.1 µM (inactive). For the same molecule, the GI50 [46] was 23 µM (inactive), the GI50 [47] was 27.3 µM (inactive) and the GI50 [48] was 25.8 µM (inactive). For the same molecule, the GI50 [49] was 22.5 µM (inactive), the GI50 [50] was 34.7 µM (inactive) and the GI50 [51] was 11.5 µM (inactive). For the same molecule, the GI50 [52] was 0.678 µM (active) and the GI50 [53] was 16.3 µM (inactive).

For `Cc1nn(C(=O)Cc2ccccc2)c2c1C(c1ccccc1O)SC(=N)N2` (stereo not drawn), the GI50 [1] was > 100 µM (inactive), the GI50 [2] was > 100 µM (inactive) and the GI50 [4] was > 100 µM (inactive). For the same molecule, the GI50 [5] was > 100 µM (inactive), the GI50 [6] was > 100 µM (inactive) and the GI50 [7] was > 100 µM (inactive). For the same molecule, the GI50 [8] was > 100 µM (inactive), the GI50 [54] was > 100 µM (inactive) and the GI50 [9] was > 100 µM (inactive). For the same molecule, the GI50 [11] was > 100 µM (inactive), the GI50 [12] was > 100 µM (inactive) and the GI50 [13] was > 100 µM (inactive). For the same molecule, the GI50 [14] was > 100 µM (inactive), the GI50 [55] was > 100 µM (inactive) and the GI50 [15] was > 100 µM (inactive). For the same molecule, the GI50 [16] was > 100 µM (inactive), the GI50 [17] was > 100 µM (inactive) and the GI50 [18] was > 100 µM (inactive). The GI50 [19] was > 100 µM (inactive), the GI50 [20] was > 100 µM (inactive) and the GI50 [21] was > 100 µM (inactive). For the same molecule, the GI50 [56] was > 100 µM (inactive), the GI50 [22] was > 100 µM (inactive) and the GI50 [24] was > 100 µM (inactive). For the same molecule, the GI50 [25] was > 100 µM (inactive), the GI50 [26] was > 100 µM (inactive) and the GI50 [27] was > 100 µM (inactive). The GI50 [28] was greater than 100 µM, the GI50 [29] was > 100 µM (inactive) and the GI50 [30] was > 100 µM (inactive). For the same molecule, the GI50 [57] was > 100 µM (inactive), the GI50 [31] was > 100 µM (inactive) and the GI50 [32] was > 100 µM (inactive). For the same molecule, the GI50 [58] was > 100 µM (inactive), the GI50 [59] was > 100 µM (inactive) and the GI50 [35] was > 100 µM (inactive). The GI50 [36] was > 100 µM (inactive), the GI50 [37] was > 100 µM (inactive) and the GI50 [38] was > 100 µM (inactive). The GI50 [40] was > 100 µM (inactive), the GI50 [41] was > 100 µM (inactive) and the GI50 [42] was > 100 µM (inactive). The GI50 [43] was > 100 µM (inactive), the GI50 [45] was > 100 µM (inactive) and the GI50 [47] was > 100 µM (inactive). For the same molecule, the GI50 [48] was > 100 µM (inactive), the GI50 [49] was > 100 µM (inactive) and the GI50 [50] was > 100 µM (inactive). The GI50 [51] was > 100 µM (inactive) and the GI50 [52] was > 100 µM (inactive).
